Structures are written as SMILES.

The values below come from patent publication US20110217300A1, “Quinazolinone Compounds and Methods of Use Thereof” (priority 2007, published 2011).

One experiment concerns A375 xenograft. In words: Xenograft model. The format is in vivo, mice. Particulars: A375, Skin; procedures and dosages of Examples 106-108.
The subject of the next experiment is SK-OV-3 xenograft. Description: Xenograft model. It counts as in vivo, mice. Particulars: SK-OV-3, Ovary; procedures and dosages of Examples 106-108.

As for `C#CC[C@H](c1nc2cc(Cl)ccc2c(=O)n1Nc1ccccc1)N(CCCN)C(=O)c1cccc(Cl)c1F` [Compound 1, N-(3-Amino-propyl)-3-chloro-N—[(R)-1-(7-chloro-4-oxo-3-phenylamino-3,4-dihydro-quinazolin-2-yl)-but-3-ynyl]-2-fluoro-benzamide], the “Xenograft Outcome (approximate percent growth inhibition)” value in the experiment on A375 xenograft is on record as “small”; with SK-OV-3 xenograft it was approximately 50%.
